Results reported in PubChem BioAssay (NCI).
Where “and” joins values, the source holds several entries; their conditions need not be identical. Equal entries are not always repeated.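 The compound was tested at five concentrations on cells cultured in 96-well plates, with a 48-hour exposure period. At the GI50, growth is halved. TGI denotes the concentration required for complete inhibition of growth.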

How the values were obtained:
Assay in all cases: inhibition of tumour cell growth, NCI panel, 48 h
[1] = test system: UO-31 renal
[2] = test system: HS 578T breast
[3] = test system: MOLT-4 leukemia
[4] = test system: NCI-H460 lung
[5] = test system: BT-549 breast
[6] = test system: HCC-2998 colon
[7] = test system: NCI-H23 lung
[8] = test system: SR leukemia
[9] = test system: SN12C renal
[10] = test system: KM12 colon

Structure (SMILES): COc1c(C)c2c(c(O)c1C/C=C(\C)CCC(=O)O)C(=O)OC2
- GI50 [1]: 0.472 µM
- TGI [1]: > 100 µM
- GI50 [2]: 0.853 µM
- TGI [2]: > 100 µM
- GI50 [3]: 0.208 µM
- TGI [3]: > 100 µM
- GI50 [4]: 0.116 µM
- TGI [4]: > 100 µM
- GI50 [5]: 0.818 µM
- TGI [5]: > 100 µM
- GI50 [6]: 0.404 µM
- TGI [6]: > 100 µM
- GI50 [7]: 0.282 µM
- TGI [7]: > 100 µM
- GI50 [8]: 0.158 µM
- TGI [8]: > 100 µM
- GI50 [9]: 0.499 µM
- TGI [9]: > 100 µM
- GI50 [10]: 0.374 µM
- TGI [10]: > 100 µM

Structure (SMILES): FC(F)(F)c1ccc(Nc2nc(-c3c(C(F)(F)F)nc4ccccn34)cs2)cc1
- GI50 [1]: 0.289 µM
- TGI [1]: 6.89 µM
- GI50 [2]: 0.0356 µM
- TGI [2]: 2.12 µM
- GI50 [3]: 0.146 µM
- TGI [3]: > 28.7 µM
- GI50 [4]: 0.0353 µM
- TGI [4]: 4.75 µM
- GI50 [5]: 0.0564 µM
- TGI [5]: 4.02 µM
- GI50 [6]: 0.18 µM
- TGI [6]: 9.74 µM
- GI50 [7]: 0.0579 µM
- TGI [7]: 5.51 µM
- GI50 [8]: 0.0402 µM
- TGI [8]: > 39.4 µM
- GI50 [9]: 0.297 µM
- TGI [9]: 8.28 µM
- GI50 [10]: 0.0393 µM
- TGI [10]: 4.23 µM

Structure (SMILES): Nc1c(C(=O)c2cccc(-c3ccncc3)c2)cnn1-c1ccc(F)cc1F
- GI50 [1]: 8.96 µM
- TGI [1]: > 25 µM
- GI50 [2]: > 25 µM
- TGI [2]: > 25 µM
- GI50 [3]: 8.39 µM
- TGI [3]: > 25 µM
- GI50 [4]: 5.2 µM
- TGI [4]: > 25 µM
- GI50 [5]: 11.1 µM
- TGI [5]: > 25 µM
- GI50 [6]: > 21.3 µM
- TGI [6]: > 25 µM
- GI50 [7]: 10.7 µM
- TGI [7]: > 25 µM
- GI50 [8]: 1.05 µM
- TGI [8]: > 18.5 µM
- GI50 [9]: 12.1 µM
- TGI [9]: > 25 µM
- GI50 [10]: 2.05 µM
- TGI [10]: > 25 µM

Structure (SMILES): Cc1cc(O)c(C(C)C)cc1S(=O)(=O)O (tested in a mixture with another compound)
- GI50 [1]: 0.382 µM
- GI50 [2]: 0.281 µM
- TGI [2]: 1.92 µM
- GI50 [3]: 0.401 µM
- GI50 [4]: 0.347 µM
- GI50 [5]: 2.26 µM
- TGI [5]: 7.54 µM
- GI50 [6]: 0.229 µM
- GI50 [7]: 0.427 µM
- TGI [7]: > 100 µM and 10.4 µM
- GI50 [8]: 0.16 µM
- GI50 [9]: 0.448 µM
- GI50 [10]: 0.381 µM

Structure (SMILES): CN[C@@H](C)C(=O)N[C@H](C(=O)N1CCC[C@H]1C(=O)Nc1snnc1-c1ccccc1)C1CCCCC1
- GI50 [1]: 97.4 µM
- TGI [1]: > 100 µM
- GI50 [2]: 72.8 µM
- TGI [2]: > 100 µM
- GI50 [3]: 36.6 µM
- TGI [3]: > 100 µM
- GI50 [4]: 58.1 µM
- TGI [4]: > 100 µM
- TGI [5]: > 81.5 µM
- GI50 [6]: 25.6 µM
- TGI [6]: 60.8 µM
- GI50 [7]: 38.4 µM
- TGI [7]: > 100 µM
- GI50 [8]: 20.7 µM
- TGI [8]: > 69.7 µM
- GI50 [9]: 74.9 µM
- TGI [9]: > 100 µM
- GI50 [10]: 34.4 µM
- TGI [10]: > 100 µM

Structure (SMILES): COc1ccc2nc3cccc([N+](=O)[O-])c3c(NCCCCCC(=O)O)c2c1
- GI50 [1]: 0.161 µM
- TGI [1]: 0.484 µM
- GI50 [2]: 0.456 µM
- TGI [2]: 2.03 µM
- GI50 [3]: 0.0266 µM
- TGI [3]: 0.284 µM
- GI50 [4]: 0.0442 µM
- TGI [4]: 0.806 µM
- GI50 [5]: 0.131 µM
- TGI [5]: 0.422 µM
- GI50 [6]: 1.18 µM
- TGI [6]: 2.5 µM
- GI50 [7]: 0.952 µM
- TGI [7]: 4.19 µM
- GI50 [8]: 0.0395 µM
- GI50 [9]: 0.131 µM
- TGI [9]: 1.16 µM
- GI50 [10]: 0.0262 µM
- TGI [10]: 0.22 µM
